{"source": "patent US20020187514A1", "about": "(priority 1999, published 2002)", "key": {"[1]": {"tested_on": "Leukotrine B4, LTB4", "assay": "Leukotrine B4, LTB4; [3H]LTB4", "assay_type": "binding", "conditions": "10^−5 M"}, "[2]": {"tested_on": "Protein Tyrosine Phosphatase, PTP-B", "assay": "Protein Tyrosine Phosphatase, PTP-B (Human); substrate pNPP", "assay_type": "biochemical", "conditions": "10^−5 M; footnote: not confirmed in QA/QC follow-up"}, "[3]": {"tested_on": "Angiotensin II, AT2", "assay_type": "binding", "conditions": "10^−5 M"}, "[4]": {"tested_on": "Protein Phosphatase, PP2B (Calcineurin)", "assay": "Protein Phosphatase, PP2B (Calcineurin); substrate pNPP", "assay_type": "biochemical", "conditions": "10^−5 M"}, "[5]": {"molecular_target": "Dopamine Transporter (Cavia porcellus, UniProt H0WCX4)", "sequence (H0WCX4 1-619)": "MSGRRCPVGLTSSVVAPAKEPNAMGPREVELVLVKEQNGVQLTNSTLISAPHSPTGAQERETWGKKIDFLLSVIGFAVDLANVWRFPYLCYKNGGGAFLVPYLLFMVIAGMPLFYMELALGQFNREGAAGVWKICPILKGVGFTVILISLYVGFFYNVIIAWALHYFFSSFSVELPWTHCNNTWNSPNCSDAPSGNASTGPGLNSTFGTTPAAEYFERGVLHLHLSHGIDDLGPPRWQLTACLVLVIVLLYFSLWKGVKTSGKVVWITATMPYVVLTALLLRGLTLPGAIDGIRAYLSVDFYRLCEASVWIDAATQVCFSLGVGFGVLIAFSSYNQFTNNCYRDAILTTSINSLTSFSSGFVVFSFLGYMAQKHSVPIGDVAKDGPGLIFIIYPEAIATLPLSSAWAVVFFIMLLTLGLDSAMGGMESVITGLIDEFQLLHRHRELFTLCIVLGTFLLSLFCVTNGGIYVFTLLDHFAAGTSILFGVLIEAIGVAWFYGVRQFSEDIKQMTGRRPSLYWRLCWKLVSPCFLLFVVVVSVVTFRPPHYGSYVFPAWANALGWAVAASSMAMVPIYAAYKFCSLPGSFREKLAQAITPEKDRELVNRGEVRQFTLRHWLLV", "assay": "biochemical", "assay_type": "binding, Guinea Pig"}, "[6]": {"molecular_target": "Complement C5a (Homo sapiens, UniProt P21730)", "sequence (P21730 whole entry)": "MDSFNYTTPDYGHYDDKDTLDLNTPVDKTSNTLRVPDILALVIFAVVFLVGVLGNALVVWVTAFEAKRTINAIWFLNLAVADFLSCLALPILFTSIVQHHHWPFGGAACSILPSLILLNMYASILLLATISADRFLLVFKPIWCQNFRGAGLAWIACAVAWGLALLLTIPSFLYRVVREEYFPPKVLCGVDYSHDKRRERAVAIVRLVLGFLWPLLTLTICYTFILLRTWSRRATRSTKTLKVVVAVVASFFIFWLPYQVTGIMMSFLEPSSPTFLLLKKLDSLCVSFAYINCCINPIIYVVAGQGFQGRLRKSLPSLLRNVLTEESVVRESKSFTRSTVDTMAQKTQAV", "assay": "Complement C5a (Human); [125I]BH-rC5a", "assay_type": "binding", "conditions": "read-out: Pass 1 (10^−5 M) % Inhibition"}, "[7]": {"molecular_target": "T1, Orphanin (Homo sapiens, UniProt P41146)", "T1 construct": "expressed in transfected cells", "assay": "biochemical", "assay_type": "binding", "conditions": "read-out: Pass 1 (10^−5 M) % Inhibition"}, "[8]": {"tested_on": "Glutamate, NMDA, Glycine (Stry-insens Site)", "assay_type": "binding", "conditions": "10^−5 M"}, "[9]": {"tested_on": "Glutamate, AMPA Site", "assay": "Glutamate, AMPA Site; [3H]AMPA", "assay_type": "binding", "conditions": "10^−5 M"}, "[10]": {"molecular_target": "T2, Adrenergic, Alpha 2C (Homo sapiens, UniProt P18825)", "T2 construct": "expressed in transfected cells", "assay": "Adrenergic, Alpha 2C (Human Recombinant); [3H]MK-912", "assay_type": "binding", "conditions": "read-out: Pass 1 (10^−5 M) % Inhibition"}, "[11]": {"molecular_target": "Protein Tyrosine Phosphatase, PTP-CD45 (Homo sapiens, UniProt P08575)", "assay": "Protein Tyrosine Phosphatase, PTP-CD45 (Human); substrate pNPP", "assay_type": "biochemical", "conditions": "read-out: Pass 1 (10^−5 M) % Inhibition"}, "[12]": {"tested_on": "Glutamate, Chloride Dependent Site", "assay": "Glutamate, Chloride Dependent Site; [3H]Glutamic Acid", "assay_type": "binding", "conditions": "10^−5 M"}, "[13]": {"molecular_target": "T3, Bradykinin, BK2 (Homo sapiens, UniProt P30411)", "T3 construct": "expressed in transfected cells", "assay": "Bradykinin, BK2 (Human recombinant); [3H]-Bradykinin", "assay_type": "binding", "conditions": "read-out: Pass 1 (10^−5 M) % Inhibition"}, "[14]": {"tested_on": "Adenosine Transport (cs + es)", "assay": "Adenosine Transport (cs + es) (Human); [3H]-Adenosine", "assay_type": "biochemical", "conditions": "10^−5 M"}, "[15]": {"molecular_target": "Calcium Channel, Type L (Benzothiazepine Site) (Rattus norvegicus, UniProt P22002)", "assay": "Calcium Channel, Type L (Benzothiazepine Site); [3H]Diltiazem, cis(+)", "assay_type": "binding", "conditions": "read-out: Pass 1 (10^−5 M) % Inhibition"}, "[16]": {"tested_on": "Imidazoline, I2, central", "assay": "Imidazoline, I2, central; [3H]2-BFI", "assay_type": "binding", "conditions": "10^−5 M"}, "[17]": {"tested_on": "Epidermal Growth Factor, EGF", "assay": "Epidermal Growth Factor, EGF; [125I]EGF", "assay_type": "binding", "conditions": "10^−5 M"}, "[18]": {"tested_on": "Glutamate, MK-801 Site", "assay": "Glutamate, MK-801 Site; [3H]MK-801", "assay_type": "binding", "conditions": "10^−5 M"}, "[19]": {"tested_on": "Purinergic, P2Y", "assay": "Purinergic, P2Y (Human); [35S]-ATPas", "assay_type": "binding", "conditions": "10^−5 M"}, "[20]": {"molecular_target": "T4, Opiate, Mu (Homo sapiens, UniProt P35372)", "T4 construct": "expressed in transfected cells", "T4 sequence (P35372 whole entry)": "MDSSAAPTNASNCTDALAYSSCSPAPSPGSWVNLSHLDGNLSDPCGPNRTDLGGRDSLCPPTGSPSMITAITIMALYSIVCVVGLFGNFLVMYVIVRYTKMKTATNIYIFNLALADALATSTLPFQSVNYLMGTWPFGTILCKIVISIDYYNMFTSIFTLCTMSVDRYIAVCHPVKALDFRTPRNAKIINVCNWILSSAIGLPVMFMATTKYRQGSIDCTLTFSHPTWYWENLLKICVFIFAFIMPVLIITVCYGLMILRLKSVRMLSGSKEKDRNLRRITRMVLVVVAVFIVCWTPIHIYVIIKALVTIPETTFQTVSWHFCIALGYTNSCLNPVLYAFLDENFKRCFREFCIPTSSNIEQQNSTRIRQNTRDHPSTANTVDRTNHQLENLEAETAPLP", "assay": "biochemical", "assay_type": "binding", "conditions": "read-out: Pass 1 (10^−5 M) % Inhibition"}, "[21]": {"tested_on": "Somatostatin, Non-selective", "assay": "Somatostatin, Non-selective; [125]-Somatostatin-14 (Tyr11)", "assay_type": "binding", "conditions": "10^−5 M"}, "[22]": {"molecular_target": "T5, Histamine, H2 (Cavia porcellus, UniProt P47747)", "T5 construct": "no other source notation after assay name denotes animal cell or animal tissue source; from tissue; host or cells: animal cell or animal tissue, not specified", "assay": "biochemical", "assay_type": "binding", "conditions": "read-out: Pass 1 (10^−5 M) % Inhibition"}, "[23]": {"molecular_target": "Muscarinic, M1 (Homo sapiens, UniProt P11229)", "assay": "biochemical", "conditions": "read-out: Pass 1 (10^−5 M) % Inhibition"}, "[24]": {"molecular_target": "Norepinephrine Transporter (Rattus norvegicus, UniProt Q9WTR4)", "assay": "biochemical", "assay_type": "binding", "conditions": "read-out: Pass 1 (10^−5 M) % Inhibition"}, "[25]": {"molecular_target": "T6, Neurotensin (Homo sapiens, UniProt P30989)", "T6 construct": "expressed in transfected cells", "assay": "biochemical", "assay_type": "binding", "conditions": "read-out: Pass 1 (10^−5 M) % Inhibition"}, "[26]": {"molecular_target": "Calcium Channel, Type L (Dihydropyridine Site) (Rattus norvegicus, UniProt P22002)", "assay": "Calcium Channel, Type L (Dihydropyridine Site); [3H]Nitrendipine", "assay_type": "binding", "conditions": "read-out: Pass 1 (10^−5 M) % Inhibition"}, "[27]": {"tested_on": "Clozapine", "assay_type": "binding"}, "[28]": {"molecular_target": "T7, Muscarinic, M5 (Homo sapiens, UniProt P08912)", "T7 construct": "expressed in transfected cells", "assay": "biochemical", "assay_type": "binding", "conditions": "read-out: Pass 1 (10^−5 M) % Inhibition"}, "[29]": {"molecular_target": "Serotonin, 5HT2A (Homo sapiens, UniProt P28223)", "sequence (P28223 whole entry)": "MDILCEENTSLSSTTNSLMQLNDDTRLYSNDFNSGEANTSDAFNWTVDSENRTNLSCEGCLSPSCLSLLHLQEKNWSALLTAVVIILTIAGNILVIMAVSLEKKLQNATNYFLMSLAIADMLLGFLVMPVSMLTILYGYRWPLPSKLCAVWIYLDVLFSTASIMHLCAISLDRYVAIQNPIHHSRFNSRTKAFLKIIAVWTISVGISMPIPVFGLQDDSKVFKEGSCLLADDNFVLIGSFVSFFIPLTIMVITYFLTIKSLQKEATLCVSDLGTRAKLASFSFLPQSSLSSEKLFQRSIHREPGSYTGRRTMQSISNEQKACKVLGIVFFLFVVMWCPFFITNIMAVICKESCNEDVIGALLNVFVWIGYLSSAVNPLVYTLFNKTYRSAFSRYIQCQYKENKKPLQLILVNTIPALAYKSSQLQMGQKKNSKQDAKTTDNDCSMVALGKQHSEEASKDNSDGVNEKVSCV", "assay": "biochemical", "assay_type": "binding", "conditions": "read-out: Pass 1 (10^−5 M) % Inhibition"}, "[30]": {"molecular_target": "Serotonin Transporter (Rattus norvegicus, UniProt P31652)", "sequence (P31652 whole entry)": "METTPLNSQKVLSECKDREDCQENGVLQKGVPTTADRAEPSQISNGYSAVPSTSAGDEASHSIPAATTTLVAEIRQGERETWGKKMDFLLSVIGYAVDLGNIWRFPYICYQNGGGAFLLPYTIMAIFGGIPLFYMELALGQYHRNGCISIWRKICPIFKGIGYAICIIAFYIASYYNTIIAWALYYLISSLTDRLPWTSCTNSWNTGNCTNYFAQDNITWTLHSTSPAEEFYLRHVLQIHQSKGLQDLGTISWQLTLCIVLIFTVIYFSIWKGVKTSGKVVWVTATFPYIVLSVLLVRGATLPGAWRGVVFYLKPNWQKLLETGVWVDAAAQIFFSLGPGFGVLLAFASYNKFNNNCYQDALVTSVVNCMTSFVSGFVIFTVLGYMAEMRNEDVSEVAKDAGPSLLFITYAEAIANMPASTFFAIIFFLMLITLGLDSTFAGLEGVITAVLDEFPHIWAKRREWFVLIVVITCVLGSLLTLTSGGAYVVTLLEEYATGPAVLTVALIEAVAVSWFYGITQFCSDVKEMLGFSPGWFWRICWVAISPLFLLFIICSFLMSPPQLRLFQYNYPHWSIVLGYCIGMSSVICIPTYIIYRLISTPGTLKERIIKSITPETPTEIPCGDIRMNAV", "assay": "biochemical", "assay_type": "binding", "conditions": "read-out: % Inhibiton (10^−5 M)"}, "[31]": {"tested_on": "Glutamate Transport", "assay": "Glutamate Transport; [3H]Glutamic Acid", "assay_type": "biochemical", "conditions": "10^−5 M"}, "[32]": {"molecular_target": "Neuropeptide, NPY1 (Homo sapiens, UniProt P25929)", "sequence (P25929 whole entry)": "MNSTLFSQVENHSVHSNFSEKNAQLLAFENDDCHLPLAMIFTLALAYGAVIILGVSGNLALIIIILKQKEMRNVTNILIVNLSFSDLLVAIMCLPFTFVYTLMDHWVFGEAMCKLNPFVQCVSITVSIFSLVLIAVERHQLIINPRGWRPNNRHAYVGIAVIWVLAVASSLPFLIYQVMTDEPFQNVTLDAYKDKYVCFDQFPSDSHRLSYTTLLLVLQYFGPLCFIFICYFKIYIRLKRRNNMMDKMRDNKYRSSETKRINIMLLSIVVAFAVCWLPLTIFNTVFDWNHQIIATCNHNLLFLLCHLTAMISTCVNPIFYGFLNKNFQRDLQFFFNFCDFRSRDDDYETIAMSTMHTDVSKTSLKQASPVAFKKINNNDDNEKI", "assay": "Neuropeptide, NPY1 (Human); [125I]PYY", "assay_type": "binding", "conditions": "read-out: Pass 1 (10^−5 M) % Inhibition"}, "[33]": {"molecular_target": "Neuropeptide, NPY2 (Homo sapiens, UniProt P49146)", "assay": "biochemical", "assay_type": "binding", "conditions": "read-out: Pass 1 (10^−5 M) % Inhibition"}, "[34]": {"molecular_target": "T8, Serotonin, 5HT4 (Cavia porcellus, UniProt O70528)", "T8 construct": "no other source notation after assay name denotes animal cell or animal tissue source; from tissue; host or cells: animal cell or animal tissue, not specified", "T8 sequence (O70528 whole entry)": "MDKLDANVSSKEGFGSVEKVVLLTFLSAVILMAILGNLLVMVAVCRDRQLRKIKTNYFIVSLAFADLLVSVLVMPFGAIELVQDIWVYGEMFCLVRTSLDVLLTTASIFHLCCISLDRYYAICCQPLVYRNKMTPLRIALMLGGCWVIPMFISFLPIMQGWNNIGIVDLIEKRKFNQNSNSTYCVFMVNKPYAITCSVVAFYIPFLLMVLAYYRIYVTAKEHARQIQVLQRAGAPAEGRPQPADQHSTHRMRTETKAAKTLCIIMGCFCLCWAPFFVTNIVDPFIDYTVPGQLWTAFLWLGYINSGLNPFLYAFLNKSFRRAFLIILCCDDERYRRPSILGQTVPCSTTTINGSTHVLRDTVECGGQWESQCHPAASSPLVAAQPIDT", "assay": "biochemical", "assay_type": "binding", "conditions": "read-out: Pass 1 (10^−5 M) % Inhibition"}, "[35]": {"tested_on": "Corticotropin Releasing Factor, CRF", "assay_type": "binding"}, "[36]": {"tested_on": "Sodium, Site 1", "assay_type": "binding"}, "[37]": {"molecular_target": "Adenosine Transporter (Homo sapiens, UniProt Q99808)", "assay": "biochemical", "assay_type": "binding", "conditions": "read-out: Pass 1 (10^−5 M) % Inhibition"}, "[38]": {"molecular_target": "Serotonin, 5HT2C (UniProt K7GSR7)", "assay_type": "binding"}, "[39]": {"tested_on": "Ahenylate Cyclase, Forskolin", "assay": "Ahenylate Cyclase, Forskolin; [3H]Forskolin", "assay_type": "binding", "conditions": "10^−5 M"}, "[40]": {"molecular_target": "GABA A, BDZ, alpha 1, central (Bos taurus, UniProt P08219+P22300)", "sequence (P22300 40-475)": "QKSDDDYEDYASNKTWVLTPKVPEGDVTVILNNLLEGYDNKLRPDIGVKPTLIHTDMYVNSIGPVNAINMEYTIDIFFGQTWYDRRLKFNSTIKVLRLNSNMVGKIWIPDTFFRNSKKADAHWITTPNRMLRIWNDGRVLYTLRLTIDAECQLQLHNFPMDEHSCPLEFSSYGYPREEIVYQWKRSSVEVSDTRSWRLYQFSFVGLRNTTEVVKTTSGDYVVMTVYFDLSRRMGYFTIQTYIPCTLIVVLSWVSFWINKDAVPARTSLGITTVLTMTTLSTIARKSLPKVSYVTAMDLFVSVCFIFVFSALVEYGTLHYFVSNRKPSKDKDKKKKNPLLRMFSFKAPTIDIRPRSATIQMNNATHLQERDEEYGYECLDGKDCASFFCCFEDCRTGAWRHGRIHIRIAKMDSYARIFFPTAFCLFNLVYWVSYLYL", "sequence (P0C2W5 24-472, further chain)": "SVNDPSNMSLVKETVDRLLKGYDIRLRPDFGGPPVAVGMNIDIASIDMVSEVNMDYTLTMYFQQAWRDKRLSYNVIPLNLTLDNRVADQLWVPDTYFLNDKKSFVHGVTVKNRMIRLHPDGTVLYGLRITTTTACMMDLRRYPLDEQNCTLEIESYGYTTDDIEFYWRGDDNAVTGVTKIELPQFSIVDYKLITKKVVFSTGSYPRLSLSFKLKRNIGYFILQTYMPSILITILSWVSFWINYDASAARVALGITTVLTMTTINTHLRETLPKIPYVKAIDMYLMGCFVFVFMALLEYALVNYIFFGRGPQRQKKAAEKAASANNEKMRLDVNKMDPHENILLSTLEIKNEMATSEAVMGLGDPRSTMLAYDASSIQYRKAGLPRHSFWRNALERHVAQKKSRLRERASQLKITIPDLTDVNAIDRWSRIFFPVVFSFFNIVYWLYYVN", "sequence (P08219 28-456)": "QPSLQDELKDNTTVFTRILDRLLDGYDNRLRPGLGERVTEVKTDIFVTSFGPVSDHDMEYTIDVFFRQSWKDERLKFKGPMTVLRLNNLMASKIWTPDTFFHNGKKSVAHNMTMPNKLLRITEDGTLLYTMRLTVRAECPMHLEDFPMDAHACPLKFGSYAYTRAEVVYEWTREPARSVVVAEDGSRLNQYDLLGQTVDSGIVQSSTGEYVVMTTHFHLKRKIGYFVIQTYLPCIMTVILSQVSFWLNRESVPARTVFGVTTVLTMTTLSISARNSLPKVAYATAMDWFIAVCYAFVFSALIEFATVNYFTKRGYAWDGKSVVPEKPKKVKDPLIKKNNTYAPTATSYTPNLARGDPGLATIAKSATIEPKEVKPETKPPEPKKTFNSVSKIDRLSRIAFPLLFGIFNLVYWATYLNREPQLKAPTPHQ", "assay": "biochemical", "conditions": "read-out: Pass 1 (10^−5 M) % Inhibition"}, "[41]": {"molecular_target": "T9, Endothelin, ET-B (Homo sapiens, UniProt P24530)", "T9 construct": "expressed in transfected cells", "T9 sequence (P24530 27-442)": "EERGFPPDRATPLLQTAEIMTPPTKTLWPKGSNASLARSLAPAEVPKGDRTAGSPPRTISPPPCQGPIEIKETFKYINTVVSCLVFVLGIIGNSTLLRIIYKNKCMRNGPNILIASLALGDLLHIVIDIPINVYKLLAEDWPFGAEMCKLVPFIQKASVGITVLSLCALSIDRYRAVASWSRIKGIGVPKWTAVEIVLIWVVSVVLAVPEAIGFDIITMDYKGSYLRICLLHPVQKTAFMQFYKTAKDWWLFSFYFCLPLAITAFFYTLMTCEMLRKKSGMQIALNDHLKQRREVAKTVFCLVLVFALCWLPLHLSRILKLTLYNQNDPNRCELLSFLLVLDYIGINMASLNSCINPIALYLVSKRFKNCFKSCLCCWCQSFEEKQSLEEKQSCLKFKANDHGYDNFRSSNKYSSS", "assay": "biochemical", "assay_type": "binding", "conditions": "read-out: Pass 1 (10^−5 M) % Inhibition"}}}
{"smiles": "COC(=O)[C@H]1[C@@H](OC(=O)c2ccccc2)C[C@@H]2CC[C@H]1N2C", "note": "[cocaine]", "values": [{"measurement": "Pass 1 (10^−5 M) % Inhibition", "setting": "[1]", "value": 17.06, "unit": "%"}, {"measurement": "Pass 1 (10^−5 M) % Inhibition", "setting": "[2]", "value": 65.03, "unit": "%"}, {"measurement": "Pass 1 (10^−5 M) % Inhibition", "setting": "[3]", "value": 5.85, "unit": "%"}, {"measurement": "Pass 1 (10^−5 M) % Inhibition", "setting": "[4]", "value": "−10.37", "unit": "%"}, {"measurement": "Ki", "setting": "[5]", "value": 321, "unit": "nM"}, {"measurement": "inhibition at 10 µM", "setting": "[5]; read-out: Pass 1 (10^−5 M) % Inhibition", "value": 91.4, "unit": "%"}, {"measurement": "inhibition at 10 µM", "setting": "[6]", "value": 15.2, "unit": "%"}, {"measurement": "inhibition at 10 µM", "setting": "[7]", "value": 32.3, "unit": "%"}, {"measurement": "Pass 1 (10^−5 M) % Inhibition", "setting": "[8]", "value": "−1.56", "unit": "%"}, {"measurement": "Pass 1 (10^−5 M) % Inhibition", "setting": "[9]", "value": "−9.30", "unit": "%"}, {"measurement": "inhibition at 10 µM", "setting": "[10]", "value": -5.94, "unit": "%"}, {"measurement": "inhibition at 10 µM", "setting": "[11]", "value": 12, "unit": "%"}, {"measurement": "Pass 1 (10^−5 M) % Inhibition", "setting": "[12]", "value": 5.36, "unit": "%"}, {"measurement": "inhibition at 10 µM", "setting": "[13]", "value": 4.48, "unit": "%"}, {"measurement": "Pass 1 (10^−5 M) % Inhibition", "setting": "[14]", "value": 2.79, "unit": "%"}, {"measurement": "inhibition at 10 µM", "setting": "[15]", "value": 20.3, "unit": "%"}, {"measurement": "Pass 1 (10^−5 M) % Inhibition", "setting": "[16]", "value": 37.90, "unit": "%"}, {"measurement": "Pass 1 (10^−5 M) % Inhibition", "setting": "[17]", "value": 10.05, "unit": "%"}, {"measurement": "Pass 1 (10^−5 M) % Inhibition", "setting": "[18]", "value": "−2.86", "unit": "%"}, {"measurement": "Pass 1 (10^−5 M) % Inhibition", "setting": "[19]", "value": 16.43, "unit": "%"}, {"measurement": "inhibition at 10 µM", "setting": "[20]", "value": 3.08, "unit": "%"}, {"measurement": "Pass 1 (10^−5 M) % Inhibition", "setting": "[21]", "value": "−3.54", "unit": "%"}, {"measurement": "inhibition at 10 µM", "setting": "[22]", "value": 28.8, "unit": "%"}, {"measurement": "inhibition at 10 µM", "setting": "[23]", "value": 23.3, "unit": "%"}, {"measurement": "inhibition at 10 µM", "setting": "[24]", "value": 60, "unit": "%"}, {"measurement": "inhibition at 10 µM", "setting": "[25]", "value": 19.1, "unit": "%"}, {"measurement": "inhibition at 10 µM", "setting": "[26]", "value": 10.2, "unit": "%"}, {"measurement": "Pass 1 (10^−5 M) % Inhibition", "setting": "[27]", "value": 1.37, "unit": "%"}, {"measurement": "inhibition at 10 µM", "setting": "[28]", "value": 6.01, "unit": "%"}, {"measurement": "inhibition at 10 µM", "setting": "[29]", "value": 23.4, "unit": "%"}, {"measurement": "inhibition at 10 µM", "setting": "[30]", "value": 96.2, "unit": "%"}, {"measurement": "Pass 1 (10^−5 M) % Inhibition", "setting": "[31]", "value": 24.20, "unit": "%"}, {"measurement": "inhibition at 10 µM", "setting": "[32]", "value": 26.6, "unit": "%"}, {"measurement": "inhibition at 10 µM", "setting": "[33]", "value": 4.27, "unit": "%"}, {"measurement": "inhibition at 10 µM", "setting": "[34]", "value": 22.1, "unit": "%"}, {"measurement": "Pass 1 (10^−5 M) % Inhibition", "setting": "[35]", "value": 22.49, "unit": "%"}, {"measurement": "Pass 1 (10^−5 M) % Inhibition", "setting": "[36]", "value": 2.74, "unit": "%"}, {"measurement": "inhibition at 10 µM", "setting": "[37]", "value": 16.5, "unit": "%"}, {"measurement": "Pass 1 (10^−5 M) % Inhibition", "setting": "[38]", "value": 1.44, "unit": "%"}, {"measurement": "Pass 1 (10^−5 M) % Inhibition", "setting": "[39]", "value": 6.27, "unit": "%"}, {"measurement": "inhibition at 10 µM", "setting": "[40]", "value": 9.58, "unit": "%"}, {"measurement": "inhibition at 10 µM", "setting": "[41]", "value": 0.19, "unit": "%"}]}
